From paper PMC4980083 (JCI insight, 2016)

Legend:
LNCaP95 cells [1] = experiment: LNCaP95 proliferation, BrdU incorporation; type: cell-based, human; details: I-EPI-002 2 μM, EPI-002 25 μM, enzalutamide 5 μM; 2 days
recombinant AR AF-1 = target: T1, recombinant AR AF-1 (Homo sapiens, UniProt P10275); experiment: Cell-free binding to recombinant AR AF-1, competition with cold EPI-002; details: preincubation with 60 μM EPI-002 for 6 hours
T1 sequence (P10275 142-485): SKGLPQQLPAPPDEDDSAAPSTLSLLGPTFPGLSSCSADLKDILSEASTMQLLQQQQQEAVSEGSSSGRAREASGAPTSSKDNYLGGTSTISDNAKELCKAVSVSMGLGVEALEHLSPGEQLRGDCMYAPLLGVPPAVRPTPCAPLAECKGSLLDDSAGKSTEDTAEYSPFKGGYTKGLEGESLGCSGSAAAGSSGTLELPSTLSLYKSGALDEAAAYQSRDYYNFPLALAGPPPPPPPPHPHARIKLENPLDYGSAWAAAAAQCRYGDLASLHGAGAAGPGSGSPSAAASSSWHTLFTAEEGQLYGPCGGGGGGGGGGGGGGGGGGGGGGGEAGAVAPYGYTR

LNCaP95 cells [2] = experiment: Cell cycle analysis of LNCaP95 cells; type: cell-based, human; details: I-EPI-002 5 μM, EPI-002 25 μM, 48 hours
[3] = target: T2, endogenous full-length AR (Homo sapiens, UniProt P10275, T878A); experiment: AR transcriptional activity, PSA
T2 sequence (P10275 1-920 T878A): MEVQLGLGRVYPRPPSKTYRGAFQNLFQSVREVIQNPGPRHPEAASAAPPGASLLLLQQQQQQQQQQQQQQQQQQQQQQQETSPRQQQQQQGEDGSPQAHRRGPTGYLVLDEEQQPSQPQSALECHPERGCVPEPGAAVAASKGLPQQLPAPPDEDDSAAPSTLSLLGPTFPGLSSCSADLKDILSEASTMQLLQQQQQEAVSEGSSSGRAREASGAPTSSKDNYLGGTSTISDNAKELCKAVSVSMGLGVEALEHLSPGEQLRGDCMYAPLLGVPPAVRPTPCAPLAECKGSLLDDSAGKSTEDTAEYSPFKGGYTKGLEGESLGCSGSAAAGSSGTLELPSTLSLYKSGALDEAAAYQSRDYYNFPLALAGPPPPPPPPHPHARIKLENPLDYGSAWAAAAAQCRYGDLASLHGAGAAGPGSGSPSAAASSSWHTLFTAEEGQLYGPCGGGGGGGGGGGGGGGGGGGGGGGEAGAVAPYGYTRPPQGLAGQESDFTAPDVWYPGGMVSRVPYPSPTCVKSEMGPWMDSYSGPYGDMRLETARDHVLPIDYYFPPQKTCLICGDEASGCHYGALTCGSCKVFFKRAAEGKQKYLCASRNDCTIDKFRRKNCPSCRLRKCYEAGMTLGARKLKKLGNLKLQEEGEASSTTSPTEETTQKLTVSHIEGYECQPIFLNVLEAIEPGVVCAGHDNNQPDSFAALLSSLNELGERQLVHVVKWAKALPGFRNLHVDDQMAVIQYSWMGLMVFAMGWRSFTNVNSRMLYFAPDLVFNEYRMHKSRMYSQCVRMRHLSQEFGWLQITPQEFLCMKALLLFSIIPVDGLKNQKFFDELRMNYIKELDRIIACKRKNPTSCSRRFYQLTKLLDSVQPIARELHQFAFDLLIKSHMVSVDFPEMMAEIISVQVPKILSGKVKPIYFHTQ

recombinant AR LBD = target: T3, recombinant AR LBD (Homo sapiens, UniProt P10275); experiment: Fluorescence polarization competition binding, AR LBD; details: 1 nM fluorescently labeled ligand, AR LBD 25 nM
T3 sequence (P10275 669-900 limits assumed): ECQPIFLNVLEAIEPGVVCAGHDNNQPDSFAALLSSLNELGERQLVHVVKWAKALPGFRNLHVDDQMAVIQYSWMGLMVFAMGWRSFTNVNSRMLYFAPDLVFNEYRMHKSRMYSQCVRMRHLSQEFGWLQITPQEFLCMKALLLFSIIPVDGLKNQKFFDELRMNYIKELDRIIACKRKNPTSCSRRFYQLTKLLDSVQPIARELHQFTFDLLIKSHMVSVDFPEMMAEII

LNCaP95 cells [4] = experiment: Western blot of cell cycle G1/S-related proteins in LNCaP95 cells; type: cell-based, human; details: enzalutamide 5 μM, EPI-002 25 μM, I-EPI-002 5 μM; 48 hours

| displacement of ^123I-EPI-002 binding to AF-1 (recombinant AR AF-1) | inhibition of AR transcriptional activity ([3]; 25 μM, R1881 1 nM) [%] | inhibition of AR transcriptional activity with increasing concentrations of androgen ([3]; increasing R1881, enzalutamide 5 μM, I-EPI-002 5 μM, EPI-002 25 μM) | competition with fluoromone for binding to AR LBD (recombinant AR LBD) | SMILES | effect on proliferation of LNCaP95 cells (LNCaP95 cells [1]) | decrease of S phase cells (LNCaP95 cells [2]) [fold] | expression of UBE2C, cyclinD3 and cyclin-dependent kinases (CDKs) (LNCaP95 cells [4]) | protein expression of the CDK inhibitor p27kip1 (LNCaP95 cells [4]) |
| --- | --- | --- | --- | --- | --- | --- | --- | --- |
| displaced binding | ~75 | maintained effective inhibition | did not prevent ligand-binding | CC(C)(c1ccc(OC[C@H](O)CO)cc1)c1ccc(OC[C@H](O)CCl)cc1 [EPI-002, reference compound] | decreased proliferation | ≥ 2 | – | – |
| – | – | – | – | CNC(=O)c1ccc(N2C(=S)N(c3ccc(C#N)c(C(F)(F)F)c3)C(=O)C2(C)C)cc1F [enzalutamide] | – | – | had no effect | had no effect |
